Source: paper PMC12389018, “Eugenia uniflora L.: Analysis of Chemical Profile and Cytotoxic Action on Tumor (HeLa) and Non-Tumor Cells (NIH/3T3)” (Pharmaceuticals, 2025)
In brackets after ≈: the same amount, converted by molar mass.

Legend:
[1] = system: HeLa (cervical cancer) cells; assay: MTT cell viability assay in HeLa cells; assay type: cell-based, human
Description: (§1) The HeLa (cervical cancer) and NIH/3T3 (murine fibroblast) cells were seeded in 96-well plates at a density of 3 × 10^4 cells/well in DMEM (Dulbecco’s Modified Eagle Medium; Gibco, Thermo Fisher, Paisley, UK), supplemented with 10% fetal bovine serum (FBS; Cultilab®, São Paulo, Brazil) and 1% penicillin/streptomycin (Pen/Strep—Cultilab®, Campinas, Brazil). The cells were incubated at 37 °C in a humidified atmosphere containing 5% CO2 for 24 h. After incubation, the cells were treated with EUD and EUA extracts at concentrations ranging from 3.5 µg/mL to 250 µg/mL and incubated for an additional 48 h. The cell lines were kindly donated by Cemib (Multidisciplinary Center for Biological Research in the Laboratory Animal Science Area, Campinas, Brazil)—Unicamp/SP.
(§2) One row of wells was treated only with the vehicle (culture medium) to serve as the negative control, representing 100% cell viability. Doxorubicin (Libbs®, São Paulo, Brazil) and carboplatin (Blau Farmacêutica®, São Paulo, Brazil) were used as the positive controls.
Following treatment, the medium was removed, and 100 µL/well of MTT reagent (5 mg/mL; 3-[4,5-dimethylthiazol-2-yl]-2,5-diphenyltetrazolium bromide; Invitrogen, Thermo Fisher, Waltham, MA, USA) was added. The plates were incubated for 4 h at 37 °C. After incubation, the resulting formazan crystals formed in viable cells were solubilized by adding 100 µL/well of DMSO (dimethyl sulfoxide; Labsynth, São Paulo, Brazil). Absorbance was measured at 570 nm using an Epoch-Biotek ELISA microplate spectrophotometer (BioTek Instruments, Winooski, VT, USA).
Statistical analysis was performed using GraphPad Prism 8.4.6 (GraphPad Software, Inc., Boston, MA, USA) via one-way ANOVA followed by Tukey’s post hoc test. Differences were considered statistically significant at p < 0.05. All the experiments were conducted in triplicate.

[2] = system: HeLa cells vs NIH/3T3 cells; assay: Selectivity index (IC50 NIH/3T3 divided by IC50 HeLa); assay type: cell-based; details: IC50 NIH/3T3 / IC50 HeLa; SI ≥ 2 considered selective
Description: The selectivity index (SI) was calculated by dividing the IC50 value of NIH/3T3 cells by the IC50 of HeLa cells. Samples with SI ≥ 2 were considered selectively cytotoxic to cancer cells.

[3] = system: NIH/3T3 (murine fibroblast) cells; assay: MTT cell viability assay in NIH/3T3 cells; assay type: cell-based
Description: as §1, §2
Following treatment, the medium was removed, and 100 µL/well of MTT reagent (5 mg/mL; 3-[4,5-dimethylthiazol-2-yl]-2,5-diphenyltetrazolium bromide; Invitrogen, Thermo Fisher, Waltham, MA, USA) was added. […] Absorbance was measured at 570 nm using an Epoch-Biotek ELISA microplate spectrophotometer (BioTek Instruments, Winooski, VT, USA). […]

HeLa cells [4] = assay: Cell migration assay (scratch assay); assay type: cell-based, human; details: EUD 7.5 μg/mL, EUA 10 μg/mL, doxorubicin 0.375 μg/mL
Description: The HeLa cells (70,000–80,000 cells/well) were seeded in 24-well plates with DMEM supplemented with 10% FBS and 1% Pen/Strep and incubated at 37 °C with 5% CO2 until 80% confluence. The medium was replaced with DMEM containing 0.2% FBS, and after 24 h, a scratch was made in the cell monolayer using a 1000 µL pipette tip. The cells were washed with sterile PBS, and they were treated with doxorubicin (positive control) and EUD and EUA extracts at ¼ of their IC50 values: 7.5 µg/mL (EUD), 10 µg/mL (EUA), and 0.375 µg/mL (doxorubicin).
Images were captured at 0 h (T0), 12 h (T1), 18 h (T2), and 24 h (T3) using an EVOS XL Core Imaging System microscope (10× objective). Scratch area percentages were analyzed using the ImageJ software 1.54g/Java 1.8.0_421 (32-bit), and statistical analysis was performed using one-way ANOVA with GraphPad Prism 8.4.3. All the experiments were conducted in triplicate.

HeLa cells [5] = assay: Cell cycle analysis by flow cytometry with PI staining; assay type: cell-based, human; details: treated at IC50, 48 h
Description: The HeLa cells (2 × 10^5 cells/well) were seeded in 6-well plates and incubated for 24 h. The cells were then treated with the EUD and EUA extracts and doxorubicin at their respective IC50 concentrations. The vehicle-treated cells served as the negative control. After 48 h, cells were harvested with trypsin, centrifuged, fixed in 70% ethanol, and stained with propidium iodide (PI) (Sigma-Aldrich®). The samples were incubated at 37 °C for 30 min in the dark and analyzed using a BD Accuri™ C6 Plus flow cytometer. Histograms were processed with the Cell Quest Pro software (version 5.1). Data was analyzed using two-way ANOVA in GraphPad Prism 8.4.3, with significance at p < 0.05.

[6] = system: SiHa cells, a cervical squamous cell carcinoma line; set-up: method as in PMID 37935292; details: cited from earlier work
[7] = system: breast cancer cells MDA-MB-468; set-up: method as in doi:10.3390/scipharm91030042; details: cited from earlier work
[8] = system: breast cancer cells MDA-MB-231; set-up: method as in doi:10.3390/scipharm91030042; details: cited from earlier work
[9] = system: non-small-cell lung cancer cells NCI-H358; set-up: method as in doi:10.3390/scipharm91030042; details: cited from earlier work
[10] = system: non-small-cell lung cancer cells A549; set-up: method as in doi:10.3390/scipharm91030042; details: cited from earlier work
[11] = system: liver (Hep-G2) cancer cells; details: in vitro; cited from earlier work
[12] = system: human cervical (HeLa) cancer cells; details: in vitro; cited from earlier work

Molecule: N.N.O=C([O-])C1(C(=O)[O-])CCC1.[Pt+2] [Carboplatin]
- IC50 Tumor Cells HeLa ([1]; 48 h treatment): 52.40 µg/mL
- concentrations with statistically significant reduction of HeLa cell viability vs negative control ([1]; p < 0.05): > 25 µg/mL
- Selectivity Index (SI) [2]: 0.73
- IC50 Non-Tumor cells NIH/3T3 ([3]; 48 h treatment): 38.32 µg/mL

Molecule: COc1cccc2c1C(=O)c1c(O)c3c(c(O)c1C2=O)C[C@@](O)(C(=O)CO)C[C@@H]3O[C@H]1C[C@H](N)[C@H](O)[C@H](C)O1 [Doxorubicin]
- IC50 ([1]; Homo sapiens, HeLa, 48 h treatment, read-out: IC50 Tumor Cells HeLa): 1.59 µg/mL (≈ 2.93 µM)
- free area (scratch) at T1 (HeLa cells [4]; 12 h): 39.51%
- free area (scratch) at T2 (HeLa cells [4]; 18 h): 36.49%
- free area (scratch) at T3 (HeLa cells [4]; 24 h): 32.17%
- inhibition of cell migration compared to the negative control (HeLa cells [4]): did not significantly inhibit tumor cell migration
- cells in SubG0 phase (HeLa cells [5]; negative control 2.97%): 44.20%
- cells in G2/M phase (HeLa cells [5]; negative control 7.97%): 0.245%
- cells in S phase (HeLa cells [5]; negative control 30.55%): 12.1%
- cells in G1/G0 phase (HeLa cells [5]; negative control 56.75%): 42.75%
- Selectivity Index (SI) [2]: 1.5
- IC50 ([3]; Mus musculus, NIH3T3, 48 h treatment, read-out: IC50 Non-Tumor cells NIH/3T3): 2.32 µg/mL (≈ 4.27 µM)

Molecule: O=c1oc2c(O)c(O)cc3c(=O)oc4c(O)c(O)cc1c4c23 [ellagic acid, Ellagic acid]
- effect on proliferation of SiHa cells [6]: inhibit cell proliferation
- effect on proliferation of MDA-MB-468 cells [7]: inhibited the proliferation
- effect on proliferation of MDA-MB-231 cells [8]: inhibited the proliferation
- effect on proliferation of NCI-H358 cells [9]: inhibited the proliferation
- effect on proliferation of A549 cells [10]: inhibited the proliferation

Molecule: myricitrin
- cytotoxicity against Hep-G2 cancer cells [11]: considerable cytotoxicity
- cytotoxicity against HeLa cancer cells [12]: considerable cytotoxicity

Molecule: unifloratrin
- cytotoxicity against Hep-G2 cancer cells [11]: considerable cytotoxicity
- cytotoxicity against HeLa cancer cells [12]: considerable cytotoxicity
